Consider 33 compounds from ChEMBL document CHEMBL2396591, “Identification of potent and orally bioavailable nucleotide competing reverse transcriptase inhibitors: in vitro and in vivo optimization of a series of benzofurano[3,2-d]pyrimidin-2-one derived inhibitors” (Bioorg Med Chem Lett, 2013).

Data set [1] in a line: Octanol-phosphate buffer partition coefficient, log D of the compound at pH 7.4. The data set is classed as physicochemical.
Data set [2] is described as follows: Oral bioavailability in rat at 5 mg/kg. Particulars: in vivo. The class given is ADME, organism-based.
The nature of data set [3]: Cmax in rat at 5 mg/kg, po. The note with it: in vivo. Also noted: dose 5 mg/kg, route oral. The class given is ADME, organism-based.
The subject of a further data set is Rattus norvegicus. As to the kind of experiment: Clearance in rat at 2 mg/kg, iv. The data set is classed as ADME, organism-based. Also noted: dose 2 mg/kg, route intravenous. Particulars: in vivo.
The nature of data set [4]: Aqueous solubility of the compound in phosphate buffer at pH 2 after 24 hrs. The data set is classed as physicochemical.
A short description of data set [5]: Aqueous solubility of the compound in phosphate buffer at pH 6.8 after 24 hrs. The data set is classed as physicochemical.

In brackets after ≈: the same amount, converted by molar mass. Bounds are passed on as bounds.

Turning to `Cn1cc(-c2cnc3oc4c(-c5cccnc5)nc(=O)n(CCC5CCCO5)c4c3c2)cn1` (stereo not drawn), the logD – broadly, lipophilicity at a set pH, counting ionised and neutral species – in data set [1] was found to be 1.7.

Consider `CNc1ccc(-c2nc(=O)n(C(C)CC3CCCO3)c3c2oc2ncc(-c4cnn(C)c4)cc23)cn1` (stereo not drawn), for which the logD in data set [1] was found to be 3.3.

In the case of `CC[C@H]1C[C@@H](n2c(=O)nc(-c3cnn(C)c3)c3oc4ccc(-c5cn(C)cn5)nc4c32)CCO1` (relative stereo), in data set [2], the bioavailability (commonly dose-corrected exposure relative to a reference, in per cent) turned out to be 69%. The peak level in data set [3] (Cmax) was 3100 nM. Moreover, the CL in the data set on Rattus norvegicus was 9.4%. In addition, the solubility (usually the concentration that dissolves in the medium under given conditions) at 24 h is above 480 µg/mL in data set [4] and 0.6 µg/mL (≈ 1.31 µM) in data set [5]. Also, in data set [1], the logD came to 2.7.

In data set [1], `CNc1ccc(-c2nc(=O)n(CCC3CC(C)(C)CO3)c3c2oc2ncc(-c4cnn(C)c4)cc23)cn1` (stereo not drawn) gave a logD of 3.4.

In the case of `CC[C@H]1C[C@@H](n2c(=O)nc(-c3cnn(C)c3)c3oc4ccc(-c5cnn(C)c5)cc4c32)CCO1` (relative stereo), the solubility at 24 h in data set [4] and in data set [5] was below 0.1 µg/mL in each case. In data set [1], this compound returned a logD of 3.

On to `COc1cncc(-c2nc(=O)n(CCC3CCCO3)c3c2oc2ncc(-c4cnn(C)c4)cc23)c1` (stereo not drawn), for which the logD in data set [1] was 2.5.

`CC[C@H]1C[C@@H](n2c(=O)nc(-c3cnn(C)c3)c3oc4cnc(-c5cnn(C)c5)cc4c32)CCO1` (relative stereo) had a bioavailability in data set [2] of 88%. In addition, in data set [3], the highest level (Cmax) was 1600 nM. Also, in the data set on Rattus norvegicus, the CL turned out to be 18%. The solubility at 24 h in data set [4] and in data set [5] was below 0.1 µg/mL in each case. The same compound had a logD in data set [1] of 2.2.

As to `CNc1ccc(-c2nc(=O)n(CC[C@@H]3CCCO3)c3c2oc2ncc(-c4cnn(C)c4)cc23)cn1`, in data set [2], the bioavailability was determined as 36%. Moreover, in data set [3], the Cmax (usually the peak of the concentration-time curve) stood at 140 nM. In the data set with Rattus norvegicus, this compound came in with a CL of 37%.

As for `CC[C@H]1C[C@@H](n2c(=O)nc(-c3cnn(C)c3)c3oc4cnc(-c5cn(C)cn5)cc4c32)CCO1` (relative stereo), the values for the solubility at 24 h in data set [4] and in data set [5] were 420 µg/mL (≈ 914 µM) and 5.3 µg/mL (≈ 11.5 µM), respectively. The same compound had a logD in data set [1] of 2.6.

In the case of `CC[C@H]1C[C@@H](n2c(=O)nc(-c3cnn(C)c3)c3oc4ccc(-c5cncn5C)cc4c32)CCO1` (relative stereo), the solubility at 24 h is above 920 µg/mL in data set [4] and 106 µg/mL (≈ 231 µM) in data set [5]. The compound also displayed a logD in data set [1] of 2.3.

Turning to `CC[C@H]1C[C@@H](n2c(=O)nc(-c3cnn(C)c3)c3oc4cc(C#N)c(-c5cnn(C)c5)nc4c32)CCO1` (relative stereo), in data set [2], the bioavailability was found to be 94%. This compound gave a Cmax in data set [3] of 8900 nM. The compound also had a CL with Rattus norvegicus of 4.6%. In addition, the solubility at 24 h in data set [4] came to 7.9 µg/mL (≈ 16.3 µM); in data set [5], 2.1 µg/mL (≈ 4.33 µM). In data set [1], this compound returned a logD of 2.7.

In data set [1], `Cn1cc(-c2cnc3oc4c(-c5ccncc5)nc(=O)n(CCC5CCCO5)c4c3c2)cn1` (stereo not drawn) showed a logD of 1.8.

`CC[C@H]1C[C@@H](n2c(=O)nc(-c3cnn(C)c3)c3oc4ccc(-c5cn(C)cn5)cc4c32)CCO1` (relative stereo): the bioavailability in data set [2] was found to be 51%. This compound returned a Cmax in data set [3] of 1200 nM. This compound yielded a CL in the data set with Rattus norvegicus of 13%. Besides, the solubility at 24 h in data set [4] was above 1000 µg/mL; in data set [5], 5 µg/mL (≈ 10.9 µM). Further, the logD in data set [1] worked out at 2.6.

Turning to `CNc1ccc(-c2nc(=O)n(CCC3CCC(C)O3)c3c2oc2ncc(-c4cnn(C)c4)cc23)cn1` (stereo not drawn), the logD in data set [1] is 3.2.

As to `CN(C)c1cnc(-c2nc(=O)n(CCC3CCCO3)c3c2oc2ncc(-c4cnn(C)c4)cc23)cn1` (stereo not drawn), the logD in data set [1] was determined as 2.

On to `Cn1cc(-c2cnc3oc4c(-c5cnn(C)c5)nc(=O)n(CCC5CCCO5)c4c3c2)cn1` (stereo not drawn), for which, in data set [1], the logD stood at 1.5.

Compound `COc1cc(-c2nc(=O)n(CCC3CCCO3)c3c2oc2ncc(-c4cnn(C)c4)cc23)ccn1` (stereo not drawn) displayed a logD in data set [1] of 2.8.

As for `CCC1(OC)CC(n2c(=O)nc(-c3ccc(NC)nc3)c3oc4ncc(-c5cnn(C)c5)cc4c32)C1` (stereo not drawn), the logD in data set [1] is 2.9.

In data set [1], `Cn1cc(-c2cnc3oc4c(-c5cn(C)nn5)nc(=O)n(CCC5CCCO5)c4c3c2)cn1` (stereo not drawn) showed a logD of 1.5.

`CNc1ccc(-c2nc(=O)n(CCC3CCOCC3)c3c2oc2ncc(-c4cnn(C)c4)cc23)cn1` yielded a logD in data set [1] of 2.5.

Turning to `CNc1ccc(-c2nc(=O)n(CCC3CCCO3)c3c2oc2ncc(-c4cnn(C)c4)cc23)nc1` (stereo not drawn), in data set [1], the pH-dependent lipophilicity (logD) was 1.9.

Compound `CNc1ccc(-c2nc(=O)n(CCC3CCCO3)c3c2oc2ncc(-c4cnn(C)c4)cc23)cn1` (racemic) had a logD in data set [1] of 2.7.

In data set [1], `CCn1cc(-c2nc(=O)n(CCC3CCCO3)c3c2oc2ncc(-c4cnn(C)c4)cc23)cn1` (stereo not drawn) showed a logD of 2.2.

The compound `COc1ccc(-c2nc(=O)n(CCC3CCCO3)c3c2oc2ncc(-c4cnn(C)c4)cc23)cn1` (stereo not drawn) yielded a logD in data set [1] of 2.8.

As for `CNc1ccc(-c2nc(=O)n(CCC3CCCCO3)c3c2oc2ncc(-c4cnn(C)c4)cc23)cn1` (stereo not drawn), the logD in data set [1] stood at 3.2.

As to `CC[C@H]1C[C@@H](n2c(=O)nc(-c3cnn(C)c3)c3oc4ncc(-c5cn(C)cn5)cc4c32)CCO1` (relative stereo), the solubility at 24 h in data set [4] is above 1000 µg/mL; in data set [5], 2.8 µg/mL (≈ 6.09 µM). Moreover, the logD in data set [1] is 1.8.

On to `CC[C@H]1C[C@@H](n2c(=O)nc(-c3cnn(C)c3)c3oc4cc(C#N)c(-c5cnn(C)c5)cc4c32)CCO1` (relative stereo), for which the solubility at 24 h in data set [4] and in data set [5] was 0.2 µg/mL (≈ 0.414 µM) each time. This compound yielded a log distribution coefficient (logD) in data set [1] of 2.5.

For the compound `CC[C@H]1C[C@@H](n2c(=O)nc(-c3ccc(NC)nc3)c3oc4ncc(-c5cnn(C)c5)cc4c32)CCO1` (racemic), the bioavailability in data set [2] stood at 34%. In data set [3], this compound registered a Cmax of 1100 nM. The compound also gave a CL in the data set on Rattus norvegicus of 19%. The logD in data set [1] was 2.9.

Compound `CC[C@H]1C[C@H](n2c(=O)nc(-c3ccc(NC)nc3)c3oc4ncc(-c5cnn(C)c5)cc4c32)CCO1` (racemic) showed a logD in data set [1] of 2.6.

In data set [1], `Cn1cc(-c2cnc3oc4c(-c5ccn(C)n5)nc(=O)n(CCC5CCCO5)c4c3c2)cn1` (stereo not drawn) gave a logD of 0.9.

Regarding `CC[C@H]1C[C@@H](n2c(=O)nc(-c3cnn(C)c3)c3oc4ccc(-c5cnn(C)c5)nc4c32)CCO1` (relative stereo), in data set [2], the bioavailability is 35%. The same compound showed a Cmax in data set [3] of 460 nM. This compound also had a CL in the data set with Rattus norvegicus of 18%. Moreover, the solubility at 24 h in data set [4] and in data set [5] was 0.2 µg/mL (≈ 0.435 µM) in each case. In data set [1], this compound came in with a logD of 3.

Compound `Cn1cc(-c2cnc3oc4c(-c5cscn5)nc(=O)n(CCC5CCCO5)c4c3c2)cn1` (stereo not drawn) came in with a logD in data set [1] of 1.5.

In the case of `COc1ccc(-c2nc(=O)n(CCC3CCCO3)c3c2oc2ncc(-c4cnn(C)c4)cc23)cc1` (stereo not drawn), the logD in data set [1] came out at 3.5.
